Results reported in ChEMBL document CHEMBL1201862, “PubChem BioAssay data set” (2004).
Active and inactive are the calls of the source.

Columns and labels:
Kallikrein-7 = Kallikrein-7 (Homo sapiens, UniProt P49862); experiment: Fluorescence Intensity-based biochemical primary high throughput dose response assay to identify activators of kallikrein-7 (K7) zymogen.
[1] = target: Induced myeloid leukemia cell differentiation protein Mcl-1 (Homo sapiens, UniProt Q07820); type: functional
Caspase-6 = target: T1, Caspase-6 (Homo sapiens, UniProt P55212); experiment: inhibition of CASP6 peptide cleavage – biochemical, VEID-R110 fluorescence, cherry-pick, dose response (AID 720632)
T1 sequence (P55212 whole entry): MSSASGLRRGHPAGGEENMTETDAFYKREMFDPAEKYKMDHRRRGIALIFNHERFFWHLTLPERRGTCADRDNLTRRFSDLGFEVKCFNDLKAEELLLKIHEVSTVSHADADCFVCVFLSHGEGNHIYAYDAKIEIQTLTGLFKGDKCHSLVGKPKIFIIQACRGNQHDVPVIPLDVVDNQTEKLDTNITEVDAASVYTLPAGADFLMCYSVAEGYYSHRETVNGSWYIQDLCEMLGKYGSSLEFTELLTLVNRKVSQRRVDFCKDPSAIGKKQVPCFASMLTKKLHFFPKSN

[2] = target: T2, Corticotropin-releasing factor receptor 2/Corticotropin-releasing factor-binding protein (Homo sapiens, UniProt P24387+Q13324); experiment: activators of CRF receptor 2 with binding protein – uHTS hits, confirmation (AID 602473); type: functional; conditions: read-out: EC50_Mean
T2 sequence (Q13324 whole entry): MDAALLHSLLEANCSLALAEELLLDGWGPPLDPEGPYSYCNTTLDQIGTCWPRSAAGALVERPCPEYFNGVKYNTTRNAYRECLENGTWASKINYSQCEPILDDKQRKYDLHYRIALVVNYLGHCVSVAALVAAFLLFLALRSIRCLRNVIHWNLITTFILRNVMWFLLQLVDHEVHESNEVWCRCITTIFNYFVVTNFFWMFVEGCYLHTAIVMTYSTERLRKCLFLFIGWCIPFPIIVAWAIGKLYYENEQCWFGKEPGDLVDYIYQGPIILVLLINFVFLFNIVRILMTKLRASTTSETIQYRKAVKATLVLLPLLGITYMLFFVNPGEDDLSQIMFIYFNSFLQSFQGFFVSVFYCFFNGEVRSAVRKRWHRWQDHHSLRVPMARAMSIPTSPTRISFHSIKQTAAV
T2 sequence (P24387 whole entry): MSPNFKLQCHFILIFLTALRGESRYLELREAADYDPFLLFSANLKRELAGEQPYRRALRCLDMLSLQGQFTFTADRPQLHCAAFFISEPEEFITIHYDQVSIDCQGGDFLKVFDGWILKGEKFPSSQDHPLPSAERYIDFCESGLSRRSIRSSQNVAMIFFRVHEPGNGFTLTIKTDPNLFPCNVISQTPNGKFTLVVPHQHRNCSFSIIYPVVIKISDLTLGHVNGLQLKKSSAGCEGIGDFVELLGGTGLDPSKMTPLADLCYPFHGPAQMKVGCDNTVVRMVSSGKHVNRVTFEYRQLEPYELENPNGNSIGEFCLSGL

[3] = target: T3, 1-phosphatidylinositol 4,5-bisphosphate phosphodiesterase gamma-1 (Homo sapiens, UniProt P19174); experiment: Counterscreen for inhibitors of phospholipase C isozymes (PLC-B3): Fluorescence-based biochemical high throughput dose response assay to identify inhibitors of phospholipase C isozymes (PLC-gamma1).
T3 sequence (P19174 whole entry): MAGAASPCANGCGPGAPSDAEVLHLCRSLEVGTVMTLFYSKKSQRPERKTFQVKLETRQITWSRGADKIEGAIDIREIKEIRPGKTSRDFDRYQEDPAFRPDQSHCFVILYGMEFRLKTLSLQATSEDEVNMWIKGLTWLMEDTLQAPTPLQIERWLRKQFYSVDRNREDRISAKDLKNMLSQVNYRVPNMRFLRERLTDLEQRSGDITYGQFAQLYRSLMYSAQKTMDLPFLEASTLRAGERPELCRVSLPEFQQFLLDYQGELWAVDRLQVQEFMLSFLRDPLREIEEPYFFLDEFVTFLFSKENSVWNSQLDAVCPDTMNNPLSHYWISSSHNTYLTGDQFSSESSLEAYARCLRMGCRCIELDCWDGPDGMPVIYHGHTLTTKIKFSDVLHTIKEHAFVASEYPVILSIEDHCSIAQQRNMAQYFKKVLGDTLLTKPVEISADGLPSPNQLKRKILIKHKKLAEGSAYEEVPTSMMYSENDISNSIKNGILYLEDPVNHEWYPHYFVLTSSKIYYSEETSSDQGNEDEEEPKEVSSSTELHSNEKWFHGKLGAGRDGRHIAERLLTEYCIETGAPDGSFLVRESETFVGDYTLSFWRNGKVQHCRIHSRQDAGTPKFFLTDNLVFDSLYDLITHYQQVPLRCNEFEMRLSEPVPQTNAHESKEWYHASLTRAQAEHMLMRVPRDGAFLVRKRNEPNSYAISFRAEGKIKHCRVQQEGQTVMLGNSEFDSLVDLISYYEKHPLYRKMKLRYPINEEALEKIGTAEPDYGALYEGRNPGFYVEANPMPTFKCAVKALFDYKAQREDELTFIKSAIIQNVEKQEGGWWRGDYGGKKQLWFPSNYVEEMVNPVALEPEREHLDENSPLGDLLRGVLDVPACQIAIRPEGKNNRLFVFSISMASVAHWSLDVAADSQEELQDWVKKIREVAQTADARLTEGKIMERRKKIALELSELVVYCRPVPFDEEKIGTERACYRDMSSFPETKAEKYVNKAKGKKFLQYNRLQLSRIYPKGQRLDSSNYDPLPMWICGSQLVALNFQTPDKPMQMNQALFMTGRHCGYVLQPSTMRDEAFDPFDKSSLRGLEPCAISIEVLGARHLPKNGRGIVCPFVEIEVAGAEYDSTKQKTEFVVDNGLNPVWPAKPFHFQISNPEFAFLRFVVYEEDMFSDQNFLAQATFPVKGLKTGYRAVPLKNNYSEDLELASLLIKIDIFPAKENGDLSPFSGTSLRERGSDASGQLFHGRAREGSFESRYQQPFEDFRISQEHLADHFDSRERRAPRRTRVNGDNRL

[4] = target: Voltage-dependent T-type calcium channel subunit alpha-1H (Homo sapiens, UniProt O95180); type: functional;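 also: channel activity triggered by adding a high calcium stimulation buffer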
Voltage-dependent T-type calcium channel subunit alpha-1H, sequence (O95180 whole entry): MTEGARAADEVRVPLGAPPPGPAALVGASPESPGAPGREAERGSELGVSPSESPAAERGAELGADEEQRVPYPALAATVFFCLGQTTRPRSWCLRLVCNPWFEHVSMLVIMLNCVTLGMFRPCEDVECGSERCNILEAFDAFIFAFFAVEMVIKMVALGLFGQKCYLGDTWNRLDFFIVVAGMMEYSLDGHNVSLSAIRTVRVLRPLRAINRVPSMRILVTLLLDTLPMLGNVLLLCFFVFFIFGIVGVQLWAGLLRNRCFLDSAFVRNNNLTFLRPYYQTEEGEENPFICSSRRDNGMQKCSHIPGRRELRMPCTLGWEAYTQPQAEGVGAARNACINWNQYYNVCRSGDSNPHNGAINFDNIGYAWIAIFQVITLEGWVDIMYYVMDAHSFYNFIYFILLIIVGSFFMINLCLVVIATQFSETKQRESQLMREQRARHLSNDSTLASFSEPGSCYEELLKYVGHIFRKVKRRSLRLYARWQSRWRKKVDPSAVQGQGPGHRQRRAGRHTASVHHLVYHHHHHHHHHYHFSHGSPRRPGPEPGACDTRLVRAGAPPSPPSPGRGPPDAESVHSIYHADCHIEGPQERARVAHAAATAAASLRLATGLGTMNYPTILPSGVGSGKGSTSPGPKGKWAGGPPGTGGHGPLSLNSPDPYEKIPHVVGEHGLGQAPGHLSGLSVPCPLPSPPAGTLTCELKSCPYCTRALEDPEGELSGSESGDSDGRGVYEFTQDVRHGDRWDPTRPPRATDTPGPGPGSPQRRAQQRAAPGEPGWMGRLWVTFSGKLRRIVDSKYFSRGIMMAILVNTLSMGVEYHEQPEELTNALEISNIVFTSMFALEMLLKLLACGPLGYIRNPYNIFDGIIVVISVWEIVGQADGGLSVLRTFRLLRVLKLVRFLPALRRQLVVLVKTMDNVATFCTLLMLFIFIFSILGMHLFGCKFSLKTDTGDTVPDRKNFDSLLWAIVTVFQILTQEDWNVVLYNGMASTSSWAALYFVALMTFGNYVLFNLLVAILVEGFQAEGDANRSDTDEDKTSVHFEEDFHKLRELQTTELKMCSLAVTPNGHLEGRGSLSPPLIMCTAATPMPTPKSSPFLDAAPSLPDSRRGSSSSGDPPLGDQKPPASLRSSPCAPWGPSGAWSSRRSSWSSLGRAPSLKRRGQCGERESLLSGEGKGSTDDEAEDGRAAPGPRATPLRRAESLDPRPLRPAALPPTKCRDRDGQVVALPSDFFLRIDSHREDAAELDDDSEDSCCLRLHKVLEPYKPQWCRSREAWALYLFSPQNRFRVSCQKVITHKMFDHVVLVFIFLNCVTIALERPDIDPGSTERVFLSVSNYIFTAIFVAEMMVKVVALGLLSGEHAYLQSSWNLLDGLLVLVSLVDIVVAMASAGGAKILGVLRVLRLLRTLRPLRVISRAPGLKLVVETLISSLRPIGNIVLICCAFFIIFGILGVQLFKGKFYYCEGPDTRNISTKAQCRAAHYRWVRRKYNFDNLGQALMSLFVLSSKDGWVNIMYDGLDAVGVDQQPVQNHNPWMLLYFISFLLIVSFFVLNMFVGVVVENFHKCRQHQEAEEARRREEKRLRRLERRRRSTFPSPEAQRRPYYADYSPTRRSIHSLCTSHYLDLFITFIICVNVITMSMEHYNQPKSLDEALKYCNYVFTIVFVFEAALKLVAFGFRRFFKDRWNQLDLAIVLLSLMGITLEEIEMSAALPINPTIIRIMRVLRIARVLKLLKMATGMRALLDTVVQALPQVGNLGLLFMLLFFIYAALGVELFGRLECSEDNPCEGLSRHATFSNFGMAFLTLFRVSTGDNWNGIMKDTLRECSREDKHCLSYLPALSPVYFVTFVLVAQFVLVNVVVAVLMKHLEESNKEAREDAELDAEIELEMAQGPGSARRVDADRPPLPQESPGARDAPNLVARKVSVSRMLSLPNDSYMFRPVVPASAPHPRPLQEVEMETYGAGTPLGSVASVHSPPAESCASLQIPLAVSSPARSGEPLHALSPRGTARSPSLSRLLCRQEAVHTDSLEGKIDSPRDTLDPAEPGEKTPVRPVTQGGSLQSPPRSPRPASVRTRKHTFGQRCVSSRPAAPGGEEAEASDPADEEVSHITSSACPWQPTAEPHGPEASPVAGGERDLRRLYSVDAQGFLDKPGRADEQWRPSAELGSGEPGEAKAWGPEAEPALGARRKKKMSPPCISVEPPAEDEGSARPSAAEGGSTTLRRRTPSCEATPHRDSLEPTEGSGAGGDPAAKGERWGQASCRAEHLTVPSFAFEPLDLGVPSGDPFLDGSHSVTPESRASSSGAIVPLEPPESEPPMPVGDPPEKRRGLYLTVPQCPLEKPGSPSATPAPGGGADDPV

[5] = target: T2, Corticotropin-releasing factor receptor 2/Corticotropin-releasing factor-binding protein; experiment: Dose Response confirmation of uHTS hits for small molecule antagonists of the CRF-binding protein and CRF-R2 receptor complex.; type: functional; conditions: read-out: IC50_Mean
[6] = target: T4, 1-phosphatidylinositol 4,5-bisphosphate phosphodiesterase beta-3 (Homo sapiens, UniProt Q01970); experiment: Fluorescence-based biochemical high throughput dose response assay to identify inhibitors of phospholipase C isozymes (PLC-B3).
T4 sequence (Q01970 whole entry): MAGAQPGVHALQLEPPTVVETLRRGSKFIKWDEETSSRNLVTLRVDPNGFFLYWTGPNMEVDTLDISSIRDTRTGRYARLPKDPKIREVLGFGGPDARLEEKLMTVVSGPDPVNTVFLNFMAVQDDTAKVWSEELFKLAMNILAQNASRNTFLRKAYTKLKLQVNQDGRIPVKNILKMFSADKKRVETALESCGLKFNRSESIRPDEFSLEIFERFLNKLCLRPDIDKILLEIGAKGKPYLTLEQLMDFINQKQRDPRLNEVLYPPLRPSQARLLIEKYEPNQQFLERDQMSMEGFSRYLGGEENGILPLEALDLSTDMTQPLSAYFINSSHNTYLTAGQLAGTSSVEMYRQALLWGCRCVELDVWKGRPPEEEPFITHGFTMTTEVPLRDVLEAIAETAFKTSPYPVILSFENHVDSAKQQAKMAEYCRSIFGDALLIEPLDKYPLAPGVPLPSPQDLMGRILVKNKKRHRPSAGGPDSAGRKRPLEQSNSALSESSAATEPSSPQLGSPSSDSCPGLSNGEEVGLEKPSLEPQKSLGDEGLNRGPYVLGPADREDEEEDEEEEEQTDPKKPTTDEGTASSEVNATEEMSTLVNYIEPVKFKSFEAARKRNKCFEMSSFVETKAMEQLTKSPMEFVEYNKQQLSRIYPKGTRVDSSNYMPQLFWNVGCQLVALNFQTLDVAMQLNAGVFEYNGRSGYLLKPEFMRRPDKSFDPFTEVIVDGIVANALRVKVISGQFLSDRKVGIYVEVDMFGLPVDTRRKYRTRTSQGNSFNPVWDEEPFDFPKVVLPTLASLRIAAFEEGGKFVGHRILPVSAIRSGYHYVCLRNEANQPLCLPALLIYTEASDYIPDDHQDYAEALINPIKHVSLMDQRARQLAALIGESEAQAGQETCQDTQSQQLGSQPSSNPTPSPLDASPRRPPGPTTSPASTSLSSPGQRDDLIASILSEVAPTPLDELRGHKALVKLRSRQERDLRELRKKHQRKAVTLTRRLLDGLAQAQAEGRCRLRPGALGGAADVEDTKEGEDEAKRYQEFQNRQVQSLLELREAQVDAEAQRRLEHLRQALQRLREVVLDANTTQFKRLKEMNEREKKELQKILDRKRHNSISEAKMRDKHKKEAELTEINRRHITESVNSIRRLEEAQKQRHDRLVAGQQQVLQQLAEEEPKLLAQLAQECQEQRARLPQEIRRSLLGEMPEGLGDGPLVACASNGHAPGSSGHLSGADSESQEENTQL

Kallikrein-7, sequence (P49862 whole entry): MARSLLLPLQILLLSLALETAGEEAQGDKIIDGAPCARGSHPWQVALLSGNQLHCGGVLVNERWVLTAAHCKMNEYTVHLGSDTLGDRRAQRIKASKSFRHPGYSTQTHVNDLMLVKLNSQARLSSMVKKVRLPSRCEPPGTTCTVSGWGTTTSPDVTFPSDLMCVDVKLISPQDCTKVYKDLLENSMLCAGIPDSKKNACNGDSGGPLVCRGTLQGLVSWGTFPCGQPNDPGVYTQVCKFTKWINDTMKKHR
Induced myeloid leukemia cell differentiation protein Mcl-1, sequence (Q07820 whole entry): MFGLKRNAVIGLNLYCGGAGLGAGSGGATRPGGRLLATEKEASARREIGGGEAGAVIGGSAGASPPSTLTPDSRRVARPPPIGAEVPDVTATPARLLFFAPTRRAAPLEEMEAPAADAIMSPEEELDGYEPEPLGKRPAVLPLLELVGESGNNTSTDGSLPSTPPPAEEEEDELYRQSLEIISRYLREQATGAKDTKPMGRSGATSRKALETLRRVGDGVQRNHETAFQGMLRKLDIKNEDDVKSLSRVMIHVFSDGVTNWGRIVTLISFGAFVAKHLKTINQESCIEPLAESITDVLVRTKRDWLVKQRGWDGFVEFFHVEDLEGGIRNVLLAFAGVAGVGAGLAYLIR

Compound: Cc1ccc(-c2cc(C(=O)OCC(=O)N(C)C3CCS(=O)(=O)C3)c3ccccc3n2)o1 (stereo not given)
- EC50 (Kallikrein-7): 6.97 µM (active)
- IC50 [1]: 5.12 µM (active)

Compound: O=C(CSc1ccsc1[N+](=O)[O-])NCc1ccco1
- AC50 (Caspase-6): 9.2 µM (active)

Compound: COc1ccccc1CC(=O)Nc1ccc(NC(=O)c2cccs2)cc1
- EC50 (Kallikrein-7): 7.57 µM (active)

Compound: O=S(=O)(c1ccccc1)c1cnn(-c2ccccc2)c1-c1ccc(F)cc1
- EC50 [2]: > 53 µM (inactive)
- IC50 [3]: > 123 µM (inactive)
- EC50 [4]: 5.16 µM (active)
- IC50 [5]: > 47.1 µM (inactive)
- IC50 [6]: > 123 µM (inactive)

Compound: CC(=O)Nc1ccc(-c2nc3ccc(NC(C)=O)cc3o2)cc1
- EC50 (Kallikrein-7): > 69.5 µM (inactive)
